Data taken from patent US20220298138A1, “ENZYME INHIBITORS” (KALVISTA PHARMACEUTICALS LIMITED, priority 2019, published 2022).

Legend:
[1] = target: T1, Human Factor XIIa (Homo sapiens, UniProt P00748); assay: Factor XIIa inhibitory activity in vitro (fluorogenic substrate H-DPro-Phe-Arg-AFC); format: biochemical; details: 25° C., class symbols, read-out: Human FXIIa IC50
T1 construct: purchased Enzyme Research Laboratories
T1 sequence (P00748 373-615 limits assumed): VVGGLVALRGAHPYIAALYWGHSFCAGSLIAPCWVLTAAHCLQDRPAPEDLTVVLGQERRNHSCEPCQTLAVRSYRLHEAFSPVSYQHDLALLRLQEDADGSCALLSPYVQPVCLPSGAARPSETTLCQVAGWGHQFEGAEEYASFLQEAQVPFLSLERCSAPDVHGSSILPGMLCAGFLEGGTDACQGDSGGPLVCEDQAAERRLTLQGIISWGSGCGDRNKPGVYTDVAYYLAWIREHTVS
Outline: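 Enzyme incubated at 25° C with fluorogenic substrate H-DPro-Phe-Arg-AFC and a range of compound concentrations. Residual activity taken as initial reaction rate from […], giving IC50.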

[2] = target: T2, Human FXIa (Homo sapiens, UniProt P03951); assay: FXIa inhibitory activity in vitro (fluorogenic substrate Z-Gly-Pro-Arg-AFC), selectivity; format: biochemical; details: 25° C.
T2 construct: Human FXIa (Enzyme Research Laboratories) was incubated; purchased Enzyme Research Laboratories
T2 sequence (P03951 388-625 limits assumed): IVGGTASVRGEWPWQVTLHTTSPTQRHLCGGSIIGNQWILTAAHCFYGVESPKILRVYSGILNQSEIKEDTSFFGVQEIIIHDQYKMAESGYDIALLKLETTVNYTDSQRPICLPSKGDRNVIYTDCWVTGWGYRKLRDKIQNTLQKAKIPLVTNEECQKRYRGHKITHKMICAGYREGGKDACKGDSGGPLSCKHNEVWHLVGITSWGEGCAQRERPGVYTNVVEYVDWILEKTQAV
T2 sequence (P03951 19-387 partner limits assumed): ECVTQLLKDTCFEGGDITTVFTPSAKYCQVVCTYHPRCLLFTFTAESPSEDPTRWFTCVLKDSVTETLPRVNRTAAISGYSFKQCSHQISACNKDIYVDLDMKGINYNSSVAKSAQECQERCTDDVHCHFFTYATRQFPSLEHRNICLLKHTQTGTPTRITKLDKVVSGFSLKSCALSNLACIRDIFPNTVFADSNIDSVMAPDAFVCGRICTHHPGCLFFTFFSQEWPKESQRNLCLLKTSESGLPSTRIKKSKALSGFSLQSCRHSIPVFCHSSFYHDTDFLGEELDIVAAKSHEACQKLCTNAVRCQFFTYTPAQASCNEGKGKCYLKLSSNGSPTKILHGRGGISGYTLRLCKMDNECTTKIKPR
Description: Determination of the % Inhibition for FXIa
Human FXIa (Enzyme Research Laboratories) was incubated at 25° C. with the fluorogenic substrate Z-Gly-Pro-Arg-AFC and various concentrations of the test compound. Residual enzyme activity (initial rate of reaction) was determined by measuring the change in fluorescence at 410 nm and the IC50 value for the test compound was determined.

| IC50 [1] | IC50 ([2]; category scale) | IC50 ([2]; numeric bound printed instead of category) | SMILES |
| --- | --- | --- | --- |
| 0.03 to 0.1 µM | > 40 µM | – | Nc1nccc2cc(CNC(=O)[C@H](Cc3ccc(F)c(F)c3)NC(=O)[C@H](N)CCCCN3CCCCC3)ccc12 [Example 12.01] |
| 0.28 to 1 µM | > 40 µM | – | CC(C)N[C@H](CCc1ccccc1)C(=O)N1CCC[C@H]1C(=O)NCc1cnc2[nH]cc(Cl)c2c1 [Example 27.01] |
| 10 to 40 µM | 10 to 40 µM | – | CC(C)(NS(=O)(=O)c1ccc2ccccc2c1)C(=O)NCc1ccc2c(N)nccc2c1 [Example 18.105] |
| 0.28 to 1 µM | 3 to 10 µM | – | CC(C)N[C@H](CCc1ccccc1)C(=O)N(C)[C@@H](C)C(=O)NCc1ccc2c(N)nccc2c1 [Example 65.01] |
| 10 to 40 µM | > 40 µM | – | Nc1nccc2cc(CNC(=O)CNC(=O)c3ccc(N4CCOCC4)cc3)ccc12 [Example 18.106] |
| 3 to 10 µM | 1 to 3 µM | – | Nc1nccc2cc(CNC(=O)C3CC4CCC3N(C(=O)[C@H](N)CCc3ccccc3)C4)ccc12 (stereo partly shown) [Example 17.06] |
| 0.03 to 0.1 µM | > 40 µM | – | N[C@H](CCCCN1CCCCC1)C(=O)N[C@@H](Cc1ccc(F)c(F)c1)C(=O)NCc1cnc2[nH]cc(Cl)c2c1 [Example 27.06] |
| 10 to 40 µM | > 40 µM | – | Nc1nccc2cc(CNC(=O)CNC(=O)C(CCc3ccccc3)N3CCNCC3)ccc12 (stereo not shown) [Example 18.109] |
| 0.28 to 1 µM | > 40 µM | – | N[C@H](CCCCN1CCOCC1)C(=O)N1CC[C@H]1C(=O)NCc1cnc2[nH]cc(Cl)c2c1 [Example 10.03] |
| 0.1 to 0.279 µM | – | > 10 µM | N=C(N)c1ccc(CNC(=O)[C@H](Cc2cccc3ccccc23)NC(=O)[C@H]2CCCN2)cc1 [Example 71.01] |
| 0.28 to 1 µM | > 40 µM | – | N[C@H](CCCCN1CCC(F)(F)C1)C(=O)N1CC[C@H]1C(=O)NCc1cnc2[nH]cc(Cl)c2c1 [Example 10.04] |
| 3 to 10 µM | > 40 µM | – | Nc1nccc2cc(CNC(=O)C3(NC(=O)[C@H](N)CCc4ccccc4)CCOCC3)ccc12 [Example 54.03] |
| 1 to 3 µM | > 40 µM | – | COc1ccc(C[C@H](NC(=O)[C@@H](CCCCN2CCCCC2)NC(C)C)C(=O)NCc2ccc3c(N)nccc3c2)cc1 [Example 12.09] |
| 10 to 40 µM | > 40 µM | – | Nc1nccc2cc(CNC(=O)[C@@H]3C[C@@H](c4ccccc4)CN3CC3CCNCC3)ccc12 [Example 43.05] |
| < 0.03 µM | 3 to 10 µM | – | CC(C)N[C@H](CCCCN1CCCCC1)C(=O)N[C@@H](Cc1cccc2ccccc12)C(=O)NCc1ccc2c(N)nccc2c1 [Example 12.06, (2R)—N-[(1S)-1-{[(1-Aminoisoquinolin-6-yl)methyl]carbamoyl}-2-(naphthalen-1-yl)ethyl]-2-(isopropylamino)-6-(piperidin-1-yl)hexanamide] |
| 0.28 to 1 µM | 10 to 40 µM | – | Nc1nccc2cc(CNC(=O)[C@@H]3CCN3C(=O)[C@H](N)CCc3ccccc3)ccc12 [Example 17.05] |
| 3 to 10 µM | > 40 µM | – | N[C@H](CCCCN1CCCC(F)(F)C1)C(=O)N1CC[C@H]1C(=O)NCc1ccc2[nH]cc(Cl)c2c1 [Example 10.15] |
| 10 to 40 µM | 10 to 40 µM | – | CC(C)N[C@H](COc1ccccc1)C(=O)N1CCC1C(=O)NCc1ccc2[nH]cc(Cl)c2c1 (stereo partly shown) [Example 10.17] |
| 3 to 10 µM | > 40 µM | – | CC(C)N[C@H](CCCCN1CCCCC1)C(=O)N[C@@H](Cc1ccc(F)c(F)c1)C(=O)NCc1cccs1 [Example 27.07] |
| 1 to 3 µM | 10 to 40 µM | – | C[C@H](NC(=O)[C@H](N)CCCCN1CCCCC1)C(=O)NCc1ccc2c(N)nccc2c1 [Example 6.14] |
| 3 to 10 µM | 10 to 40 µM | – | CNC(C)(C)C(=O)N1C[C@H](c2ccccc2)C[C@H]1C(=O)NCc1ccc2c(N)nccc2c1 [Example 43.07] |
| 0.28 to 1 µM | 0.3 to 1 µM | – | C[C@H](NC(=O)[C@@H](CCc1ccccc1)NS(C)(=O)=O)C(=O)NCc1ccc2c(N)nccc2c1 [Example 6.20] |
| 0.28 to 1 µM | 10 to 40 µM | – | C[C@H](NC(=O)[C@H](N)CCc1ccccc1)C(=O)NCc1cnc2[nH]cc(Cl)c2c1 [Example 9.01] |
| 10 to 40 µM | > 40 µM | – | CC(NC(=O)[C@H](N)CCc1ccccc1)C(=O)NCc1ccc2ccnc(N)c2c1 (stereo partly shown) [Example 6.21] |
| 3 to 10 µM | > 40 µM | – | C[C@H](NC(=O)[C@H](N)CCc1ccncc1)C(=O)NCc1ccc2c(N)nccc2c1 [Example 6.15] |
| 0.1 to 0.279 µM | > 40 µM | – | CC(C)N[C@H](CCc1ccccc1)C(=O)N[C@@H](C)C(=O)NCc1cc2c(N)nccc2o1 [Example 9.24] |
| 0.28 to 1 µM | 10 to 40 µM | – | CC(C)N[C@H](CCCCN1CCCCC1)C(=O)N[C@@H](C)C(=O)NCc1ccc2c(N)nccc2c1 [Example 12.02] |
| 10 to 40 µM | – | – | Nc1nccc2cc(CNC(=O)[C@H](Cc3ccc(F)c(F)c3)NC(=O)CCNC(=O)c3ccc(F)cc3)ccc12 [Example 20.09] |
| 10 to 40 µM | – | – | C[C@@H]1CCC[C@H](C)N1CC(=O)N1CC[C@@H](C(=O)NCc2ccc3c(N)nccc3c2)C1 [Example 32.07] |
| 10 to 40 µM | – | – | CC(C)N1CCC[C@@H]1C(=O)N[C@@H](Cc1ccc(F)c(F)c1)C(=O)NCc1ccc2c(cnn2C)c1 [Example 44.06] |

More lines, now with the values behind:

| SMILES | IC50 [1] | IC50 ([2]; category scale) | IC50 ([2]; numeric bound printed instead of category) |
| --- | --- | --- | --- |
| CC(C)n1cc(C(=O)N[C@@H](Cc2ccc(F)c(F)c2)C(=O)NCc2ccc3c(N)nccc3c2)ccc1=O [Example 0.94] | 1 to 3 µM | > 40 µM | – |
| CC(C)c1cc(C(=O)N[C@@H](Cc2ccc(F)c(F)c2)C(=O)NCc2ccc3c(N)nccc3c2)cnn1 [Example 0.97] | 1 to 3 µM | > 40 µM | – |
| CC(C)c1cncc(C(=O)N[C@@H](Cc2ccc(F)c(F)c2)C(=O)NCc2ccc3c(N)nccc3c2)n1 [Example 0.98] | 10 to 40 µM | > 40 µM | – |
| CC(C)c1cc(C(=O)N[C@@H](Cc2ccc(F)c(F)c2)C(=O)NCc2ccc3c(N)nccc3c2)ncn1 [Example 0.87] | 0.28 to 1 µM | – | – |
| Nc1nccc2cc(CNC(=O)[C@H](Cc3ccc(F)c(F)c3)NC(=O)c3ccccc3)ccc12 [Example 0.34] | 10 to 40 µM | – | – |
| Nc1nccc2cc(CNC(=O)[C@H](Cc3ccc(F)c(F)c3)NC(=O)c3cccnc3N3CCOCC3)ccc12 [Example 0.45] | 10 to 40 µM | – | – |
| Nc1nccc2cc(CNC(=O)[C@H](Cc3ccc(F)c(F)c3)NC(=O)CCc3nnc(-c4ccccc4)o3)ccc12 [Example 0.51] | 10 to 40 µM | – | – |
| CC1CCCC(C)N1CC(=O)N[C@@H](Cc1cccc2ccccc12)C(=O)NCc1ccc2c(N)nccc2c1 (stereo partly shown) [Example 3.02] | 0.1 to 0.279 µM | – | – |
| Cn1cncc1C(=O)N[C@@H](Cc1ccc(F)c(F)c1)C(=O)NCc1ccc2c(N)nccc2c1 [Example 0.69] | 10 to 40 µM | – | – |
| Cc1nc(C(=O)N[C@@H](Cc2ccc(F)c(F)c2)C(=O)NCc2ccc3c(N)nccc3c2)c(C)o1 [Example 0.06] | 10 to 40 µM | – | – |
| Cc1ccc(CN(C)CC(=O)N[C@@H](Cc2ccc(F)c(F)c2)C(=O)NCc2ccc3c(N)nccc3c2)cc1 [Example 3.27] | 10 to 40 µM | – | – |
| CCC(C)[C@H](C(=O)N[C@@H](Cc1ccc(F)c(F)c1)C(=O)NCc1ccc2c(N)nccc2c1)N(C)C (stereo partly shown) [Example 5.101] | 3 to 10 µM | – | – |
| CN(C)C(C)(C)C(=O)N[C@@H](Cc1ccc(F)c(F)c1)C(=O)NCc1ccc2c(N)nccc2c1 [Example 0.86] | 1 to 3 µM | – | – |
